Experimental data from publication PMC8793051 (ACS Omega, 2022).

Tests used:
NCI-H522 = assay: NCI-60 SRB growth assay; assay type: cell-based, human; conditions: for GI50: NCI-H522; for TGI: NCI–H522
SNB-75 = assay: NCI-60 SRB growth assay; assay type: cell-based, human; conditions: for GI50 / CC50: Homo sapiens; for GI50 / TGI: SNB-75; for CC50: SNB-75, read-out: LC50
SK-MEL-28 = assay: NCI-60 SRB growth assay; assay type: cell-based, human; conditions: for GI50 / CC50: Homo sapiens; for GI50 / TGI: SK-MEL-28; for CC50: SK-MEL-28, read-out: LC50
A549/ATCC = assay: NCI-60 SRB growth assay; assay type: cell-based, human; conditions: for TGI: A549/ATCC; for GI50: Homo sapiens, A549
OVCAR-8 = assay: NCI-60 SRB growth assay; assay type: cell-based, human; conditions: for GI50 / TGI: OVCAR-8
NCI-H23 = assay: NCI-60 SRB growth assay; assay type: cell-based, human; conditions: for GI50: NCI-H23; for TGI: NCI–H23
DU-145 = assay: NCI-60 SRB growth assay; assay type: cell-based, human; conditions: for TGI / GI50: DU-145; for GI50 / CC50: Homo sapiens; for CC50: DU-145, read-out: LC50
SK-MEL-5 = assay: NCI-60 SRB growth assay; assay type: cell-based, human; conditions: for GI50 / CC50: Homo sapiens; for GI50 / TGI: SK-MEL-5; for CC50: SK-MEL-5, read-out: LC50
MOLT-4 = assay: NCI-60 SRB growth assay; assay type: cell-based, human; conditions: for GI50 / CC50: Homo sapiens; for GI50 / TGI: MOLT-4; for CC50: MOLT-4, read-out: LC50
Hu Topo I = target: T1, Hu Topo I (Homo sapiens, UniProt P11387); assay: Plasmid DNA relaxation assay
T1 sequence (P11387 1-765): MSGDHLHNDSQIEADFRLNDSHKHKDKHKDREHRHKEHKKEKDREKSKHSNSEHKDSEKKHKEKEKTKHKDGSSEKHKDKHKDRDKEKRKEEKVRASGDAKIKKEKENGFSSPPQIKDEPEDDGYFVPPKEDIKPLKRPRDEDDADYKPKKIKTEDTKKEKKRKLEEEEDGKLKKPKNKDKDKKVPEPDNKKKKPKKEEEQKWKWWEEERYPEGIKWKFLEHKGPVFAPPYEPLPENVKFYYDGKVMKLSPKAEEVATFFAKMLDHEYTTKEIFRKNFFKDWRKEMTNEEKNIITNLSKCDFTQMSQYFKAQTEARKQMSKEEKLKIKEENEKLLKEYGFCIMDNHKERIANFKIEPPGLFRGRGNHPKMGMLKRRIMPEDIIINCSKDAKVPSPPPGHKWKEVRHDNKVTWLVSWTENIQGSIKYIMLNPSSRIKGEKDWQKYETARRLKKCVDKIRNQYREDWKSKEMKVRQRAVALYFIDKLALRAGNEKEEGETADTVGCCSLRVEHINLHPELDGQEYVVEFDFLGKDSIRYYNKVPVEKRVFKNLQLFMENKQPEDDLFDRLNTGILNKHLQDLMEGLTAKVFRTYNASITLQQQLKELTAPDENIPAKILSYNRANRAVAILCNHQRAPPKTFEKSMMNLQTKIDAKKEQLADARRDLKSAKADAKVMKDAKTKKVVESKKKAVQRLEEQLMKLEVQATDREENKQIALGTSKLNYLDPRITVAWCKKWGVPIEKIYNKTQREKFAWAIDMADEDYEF

OVCAR-5 = assay: NCI-60 SRB growth assay; assay type: cell-based, human; conditions: for GI50 / CC50: Homo sapiens; for GI50 / TGI: OVCAR-5; for CC50: OVCAR-5, read-out: LC50
NIH3T3 = assay: MTT cytotoxicity assay; assay type: cell-based; conditions: Mus musculus, NIH3T3, 48 h
M14 = assay: NCI-60 SRB growth assay; assay type: cell-based, human; conditions: for GI50 / CC50: Homo sapiens; for GI50 / TGI: M14; for CC50: M14, read-out: LC50
MALME-3M = assay: NCI-60 SRB growth assay; assay type: cell-based, human; conditions: for TGI: MALME-3M
OVCAR-3 = assay: NCI-60 SRB growth assay; assay type: cell-based, human; conditions: for GI50 / CC50: Homo sapiens; for GI50 / TGI: OVCAR-3; for CC50: OVCAR-3, read-out: LC50
OVCAR-4 = assay: NCI-60 SRB growth assay; assay type: cell-based, human; conditions: for GI50 / CC50: Homo sapiens; for GI50 / TGI: OVCAR-4; for CC50: OVCAR-4, read-out: LC50
T-47D = assay: NCI-60 SRB growth assay; assay type: cell-based, human; conditions: for GI50 / CC50: Homo sapiens, T47D; for CC50: read-out: LC50; for TGI: T-47D
RPMI-8226 = assay: NCI-60 SRB growth assay; assay type: cell-based, human; conditions: for GI50 / CC50: Homo sapiens; for GI50 / TGI: RPMI-8226; for CC50: RPMI-8226, read-out: LC50
NCI-H460 = assay: NCI-60 SRB growth assay; assay type: cell-based, human; conditions: for GI50 / CC50: Homo sapiens; for GI50: NCI-H460; for CC50: NCI-H460, read-out: LC50; for TGI: NCI–H460
UO-31 = assay: NCI-60 SRB growth assay; assay type: cell-based, human; conditions: for GI50 / CC50: Homo sapiens; for GI50 / TGI: UO-31; for CC50: UO-31, read-out: LC50
SF-295 = assay: NCI-60 SRB growth assay; assay type: cell-based, human; conditions: for GI50: SF-295; for TGI: SF-265
HCT-116 = assay: NCI-60 SRB growth assay; assay type: cell-based, human; conditions: for TGI / GI50: HCT-116; for GI50 / CC50: Homo sapiens; for CC50: HCT-116, read-out: LC50
HCT-15 = assay: NCI-60 SRB growth assay; assay type: cell-based, human; conditions: for TGI / GI50: HCT-15; for GI50 / CC50: Homo sapiens; for CC50: HCT-15, read-out: LC50
RXF 393 = assay: NCI-60 SRB growth assay; assay type: cell-based, human; conditions: for GI50: RXF 393; for TGI: RXF393
[1] = tested on: oligo-2: d(CGATGTACATCG)2; assay: UV thermal denaturation; assay type: binding

CCCN1CCN(c2ccc3[nH]c(-c4ccc5[nH]c(-c6ccc(OCC)c(OCC)c6)nc5c4)nc3c2)CC1 [11a, 2-(2-(3,4-Diethoxyphenyl)-1H-benzo[d]imidazol-5-yl)-5-(4-propylpiperazin-1-yl)-1H-benzo[d]imidazole]
GI50 (NCI-H522; Homo sapiens): 0.45 µM | TGI (NCI-H522): 2.11 µM | GI50 (SNB-75): 0.71 µM | CC50 (SNB-75): 4.3 µM | TGI (SNB-75): 1.9 µM | GI50 (SK-MEL-28): 0.91 µM | CC50 (SK-MEL-28): 5.2 µM | TGI (SK-MEL-28): 2.2 µM | TGI (A549/ATCC): 3.02 µM | GI50 (A549/ATCC): 1.17 µM | GI50 (OVCAR-8; Homo sapiens): 0.45 µM | CC50 (OVCAR-8; Homo sapiens, OVCAR-8, read-out: LC50): > 100 µM | TGI (OVCAR-8): 2.16 µM | GI50 (NCI-H23; Homo sapiens): 0.25 µM | CC50 (NCI-H23; Homo sapiens, NCI-H23, read-out: LC50): 4.24 µM | TGI (NCI-H23): 0.7 µM | TGI (DU-145): 2.02 µM | GI50 (DU-145): 0.44 µM | CC50 (DU-145): 12.4 µM | GI50 (SK-MEL-5): 0.63 µM | CC50 (SK-MEL-5): 4.6 µM | TGI (SK-MEL-5): 2.01 µM | GI50 (MOLT-4): 0.59 µM | CC50 (MOLT-4): > 100 µM | TGI (MOLT-4): 4.4 µM | IC90 (Hu Topo I): 140 µM | GI50 (OVCAR-5): 2.09 µM | CC50 (OVCAR-5): 15.9 µM | TGI (OVCAR-5): 5.01 µM | IC50 (NIH3T3): 2.3 µM | GI50 (M14): 0.25 µM | CC50 (M14): 5 µM | TGI (M14): 1.5 µM | GI50 (MALME-3M; Homo sapiens, Malme-3M): 0.08 µM | CC50 (MALME-3M; Homo sapiens, Malme-3M, read-out: LC50): 3.9 µM | TGI (MALME-3M): 1.2 µM | GI50 (OVCAR-3): 0.26 µM | CC50 (OVCAR-3): 1.8 µM | TGI (OVCAR-3): 0.58 µM | GI50 (OVCAR-4): 0.69 µM | CC50 (OVCAR-4): 9.5 µM | TGI (OVCAR-4): 2.8 µM | GI50 (T-47D): 0.91 µM | CC50 (T-47D): > 100 µM | TGI (T-47D): 9.11 µM | GI50 (RPMI-8226): 0.47 µM | CC50 (RPMI-8226): > 100 µM | TGI (RPMI-8226): 2.5 µM | GI50 (NCI-H460): 0.43 µM | CC50 (NCI-H460): 4.38 µM | TGI (NCI-H460): 1.51 µM | GI50 (UO-31): 1.67 µM | CC50 (UO-31): 8.76 µM | TGI (UO-31): 3.82 µM | GI50 (SF-295; Homo sapiens): 0.5 µM | CC50 (SF-295; Homo sapiens, SF-295, read-out: LC50): 7.8 µM | TGI (SF-295): 2.3 µM | TGI (HCT-116): 1.23 µM | GI50 (HCT-116): 0.24 µM | CC50 (HCT-116): 4.7 µM | TGI (HCT-15): 18.9 µM | GI50 (HCT-15): 2.42 µM | CC50 (HCT-15): > 100 µM | GI50 (RXF 393; Homo sapiens): 0.26 µM | CC50 (RXF 393; Homo sapiens, RXF 393, read-out: LC50): 3.6 µM | TGI (RXF 393): 0.9 µM | Tm ([1]; r = 0.5, oligo 2.5 μM): 57.9 °C | Tm ([1]; r = 1): 58.9 °C | ΔTm ([1]; r = 1): 2 °C | Tm ([1]; r = 1.5): 58.9 °C | ΔTm ([1]; r = 1.5): 2 °C | ΔTm ([1]; r = 2.0): 2 °C

CCCCN1CCN(c2ccc3[nH]c(-c4ccc5[nH]c(-c6ccc(OCC)c(OCC)c6)nc5c4)nc3c2)CC1 [12a, 5-(4-Butylpiperazin-1-yl)-2-(2-(3,4-diethoxyphenyl)-1H-benzo[d]imidazol-5-yl)-1H-benzo[d]imidazole]
GI50 (NCI-H522; Homo sapiens): 1.2 µM | CC50 (NCI-H522; Homo sapiens, NCI-H522, read-out: LC50): > 100 µM | TGI (NCI-H522): 3.97 µM | GI50 (SNB-75): 0.65 µM | CC50 (SNB-75): 4.54 µM | TGI (SNB-75): 2.01 µM | GI50 (SK-MEL-28): 1.01 µM | CC50 (SK-MEL-28): 4.86 µM | TGI (SK-MEL-28): 2.22 µM | TGI (A549/ATCC): 2.93 µM | GI50 (A549/ATCC): 1.18 µM | GI50 (OVCAR-8; Homo sapiens): 0.89 µM | TGI (OVCAR-8): 3.06 µM | GI50 (NCI-H23; Homo sapiens): 0.78 µM | TGI (NCI-H23): 2.35 µM | TGI (DU-145): 2.21 µM | GI50 (DU-145): 1 µM | CC50 (DU-145): 4.88 µM | GI50 (SK-MEL-5): 1.09 µM | CC50 (SK-MEL-5): 9.22 µM | TGI (SK-MEL-5): 3.16 µM | GI50 (MOLT-4): 1.22 µM | CC50 (MOLT-4): 31.6 µM | TGI (MOLT-4): 3.86 µM | IC90 (Hu Topo I): 152 µM | GI50 (OVCAR-5): 1.9 µM | CC50 (OVCAR-5): 6.08 µM | TGI (OVCAR-5): 3.40 µM | IC50 (NIH3T3): 8.2 µM | GI50 (M14): 0.31 µM | CC50 (M14): 4.68 µM | TGI (M14): 1.55 µM | GI50 (MALME-3M; Homo sapiens, Malme-3M): 0.19 µM | TGI (MALME-3M): 1.18 µM | GI50 (OVCAR-3): 0.35 µM | CC50 (OVCAR-3): 2.92 µM | TGI (OVCAR-3): 0.85 µM | GI50 (OVCAR-4): 1.48 µM | CC50 (OVCAR-4): 6.95 µM | TGI (OVCAR-4): 3.21 µM | GI50 (T-47D): 1.36 µM | CC50 (T-47D): > 100 µM | TGI (T-47D): 7.88 µM | GI50 (RPMI-8226): 0.43 µM | CC50 (RPMI-8226): > 100 µM | TGI (RPMI-8226): 2.06 µM | GI50 (NCI-H460): 0.53 µM | CC50 (NCI-H460): 5.31 µM | TGI (NCI-H460): 1.86 µM | GI50 (UO-31): 2 µM | CC50 (UO-31): 43.8 µM | TGI (UO-31): 5.80 µM | GI50 (SF-295; Homo sapiens): 0.7 µM | TGI (SF-295): 2.26 µM | TGI (HCT-116): 1.66 µM | GI50 (HCT-116): 0.43 µM | CC50 (HCT-116): 4.3 µM | TGI (HCT-15): 3.32 µM | GI50 (HCT-15): 1.56 µM | CC50 (HCT-15): 7.05 µM | GI50 (RXF 393; Homo sapiens): 1.01 µM | TGI (RXF 393): 2.35 µM | ΔTm ([1]; r = 0.5): 1 °C | Tm ([1]; r = 0.5, oligo 2.5 μM): 57.9 °C | Tm ([1]; r = 1): 58.9 °C | ΔTm ([1]; r = 1): 2 °C | Tm ([1]; r = 1.5): 58.9 °C | ΔTm ([1]; r = 1.5): 2 °C | Tm ([1]; r = 2.0): 59.9 °C | ΔTm ([1]; r = 2.0): 3 °C
